Test results taken from US20230131025A1, “QUINOLYL PHOSPHINE OXIDE COMPOUND, AND COMPOSITION AND APPLICATION THEREOF” (Betta Pharmaceuticals Co., Ltd., priority 2020, published 2023).
pIC50: −log10 of the molar value.

Legend:
EGFR WT = EGFR WT (Homo sapiens, UniProt P00533); test: Kinase inhibition assay (mobility shift); type: biochemical
Method: (§1) Experiment 1 Kinase Inhibition Assay Mobility shift assays were performed to determine inhibitory activity of compounds against EGFR^Δ19del/T790M/C797S, EGFR WT and IGF1R kinases. The enzymatic reaction scheme is as follows:
(§2) 1. Preparing 1*Kinase Buffer as follows:
(§3) 2. Preparing compound concentration gradient: the initial concentration of the compound tested in the assay was 3,000 nM or 100 nM, which is then diluted to be 100-fold final concentration in 100% DMSO in a 384-source plate. Compounds in 10 concentrations were diluted in a 3-fold gradient with Precision. 250 nL of compound in 100-fold final concentration was transferred to OptiPlate-384F plate by using a dispenser named Echo 550.
(§4) 3. Preparing kinase solution at 2.5-fold the final concentration with 1×kinase buffer.
(§5) 4. Adding 10 μL of kinase solution at 2.5-fold the final concentration to compound wells and positive control wells respectively; and adding 10 μL of 1×kinase buffer to negative control wells.
(§6) 5. Centrifuging the wells at 1,000 rpm for 30 seconds, mixing the reaction plate well by shaking and incubating it at room temperature for 10 minutes.
(§7) 6. Preparing a mixed solution of ATP and kinase substrate at 5-fold/3-fold the final concentration with 1×Kinase buffer, respectively.
(§8) 7. Initiating the reaction by adding 15 μL of the mixed solution of ATP and kinase substrate at 5-fold/3-fold the final concentration.
(§9) 8. Centrifuging the 384-well plate at 1,000 rpm for 30 seconds, mixing the reaction plate well by shaking and incubating it at room temperature for a corresponding time.
(§10) 9. Adding 30 μL of assay stop solution to stop the kinase reaction, and centrifuging the plate at 1,000 rpm for 30 seconds and mixing it well by shaking.
(§11) 10. Reading the conversion rate with Caliper EZ Reader.
(§12) [formula] • wherein, “Conversion % sample” is the conversion rate reading of the sample;
(§13) “Conversion %_min” is the mean value of the negative control wells, representing the conversion rate readings of the well without enzymatic activity; “Conversion %_max” is the mean value of the positive control wells, representing the conversion rate readings of the wells without compound inhibition. • Dose-response curve is plotted with the logarithmic concentration on the X-axis and percent inhibition on the Y-axis. The fitting of the dose-response curve is made with the module “log(inhibitor) vs. response—Variable slope” of the analysis software GraphPad Prism 5, so that the IC50 value of each compound on enzymatic activity is obtained. • The calculation formula is: Y=Bottom+(Top−Bottom)/(1+10^((Log IC50−X)*HillSlope)).

EGFR Δ19del/T790M/C797S = EGFR Δ19del/T790M/C797S (Homo sapiens, UniProt P00533, T790M/C797S, form not given); test: Kinase inhibition assay (mobility shift); type: biochemical
EGFR Δ19del/T790M/C797S, sequence (P00533 with tags, fused parts or gaps DEL746-750/T790M/C797S, form open): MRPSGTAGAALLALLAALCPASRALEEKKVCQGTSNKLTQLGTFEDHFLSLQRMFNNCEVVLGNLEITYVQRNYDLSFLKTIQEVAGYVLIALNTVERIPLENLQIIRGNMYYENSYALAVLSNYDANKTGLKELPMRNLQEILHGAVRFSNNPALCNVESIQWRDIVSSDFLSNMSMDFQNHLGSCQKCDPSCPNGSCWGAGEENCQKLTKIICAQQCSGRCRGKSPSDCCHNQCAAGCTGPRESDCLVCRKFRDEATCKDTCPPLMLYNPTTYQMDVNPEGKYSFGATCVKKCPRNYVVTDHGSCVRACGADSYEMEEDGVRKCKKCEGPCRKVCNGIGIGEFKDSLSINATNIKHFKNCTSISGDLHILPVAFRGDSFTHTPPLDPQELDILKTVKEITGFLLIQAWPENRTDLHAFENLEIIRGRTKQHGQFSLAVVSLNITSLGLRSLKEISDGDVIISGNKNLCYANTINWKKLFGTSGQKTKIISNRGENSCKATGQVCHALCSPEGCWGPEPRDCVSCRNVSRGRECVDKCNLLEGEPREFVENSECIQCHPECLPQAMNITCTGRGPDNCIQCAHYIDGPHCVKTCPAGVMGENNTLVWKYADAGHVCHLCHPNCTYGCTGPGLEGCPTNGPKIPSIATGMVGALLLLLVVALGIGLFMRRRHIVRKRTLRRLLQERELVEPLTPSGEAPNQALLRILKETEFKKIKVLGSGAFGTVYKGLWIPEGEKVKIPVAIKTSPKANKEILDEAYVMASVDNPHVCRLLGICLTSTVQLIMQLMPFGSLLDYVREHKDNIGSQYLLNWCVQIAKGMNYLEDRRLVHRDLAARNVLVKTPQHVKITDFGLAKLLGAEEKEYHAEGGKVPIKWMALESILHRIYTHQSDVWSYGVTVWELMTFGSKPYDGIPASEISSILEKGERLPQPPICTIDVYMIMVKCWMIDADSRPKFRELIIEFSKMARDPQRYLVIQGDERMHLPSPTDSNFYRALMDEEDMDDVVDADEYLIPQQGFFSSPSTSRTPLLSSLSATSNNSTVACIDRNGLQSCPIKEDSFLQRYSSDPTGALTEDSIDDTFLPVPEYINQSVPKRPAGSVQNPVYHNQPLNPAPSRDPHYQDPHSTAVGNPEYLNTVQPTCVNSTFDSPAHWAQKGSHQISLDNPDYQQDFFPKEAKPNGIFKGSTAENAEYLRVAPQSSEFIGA
Method: as §1, §2, §3, §4, §5, §6, §7, §8, §9, §10, §11, §12, §13

IGF1R = IGF1R (Homo sapiens, UniProt P08069); test: Kinase inhibition assay (mobility shift); type: biochemical
IGF1R, sequence (P08069 31-1367, species assumed): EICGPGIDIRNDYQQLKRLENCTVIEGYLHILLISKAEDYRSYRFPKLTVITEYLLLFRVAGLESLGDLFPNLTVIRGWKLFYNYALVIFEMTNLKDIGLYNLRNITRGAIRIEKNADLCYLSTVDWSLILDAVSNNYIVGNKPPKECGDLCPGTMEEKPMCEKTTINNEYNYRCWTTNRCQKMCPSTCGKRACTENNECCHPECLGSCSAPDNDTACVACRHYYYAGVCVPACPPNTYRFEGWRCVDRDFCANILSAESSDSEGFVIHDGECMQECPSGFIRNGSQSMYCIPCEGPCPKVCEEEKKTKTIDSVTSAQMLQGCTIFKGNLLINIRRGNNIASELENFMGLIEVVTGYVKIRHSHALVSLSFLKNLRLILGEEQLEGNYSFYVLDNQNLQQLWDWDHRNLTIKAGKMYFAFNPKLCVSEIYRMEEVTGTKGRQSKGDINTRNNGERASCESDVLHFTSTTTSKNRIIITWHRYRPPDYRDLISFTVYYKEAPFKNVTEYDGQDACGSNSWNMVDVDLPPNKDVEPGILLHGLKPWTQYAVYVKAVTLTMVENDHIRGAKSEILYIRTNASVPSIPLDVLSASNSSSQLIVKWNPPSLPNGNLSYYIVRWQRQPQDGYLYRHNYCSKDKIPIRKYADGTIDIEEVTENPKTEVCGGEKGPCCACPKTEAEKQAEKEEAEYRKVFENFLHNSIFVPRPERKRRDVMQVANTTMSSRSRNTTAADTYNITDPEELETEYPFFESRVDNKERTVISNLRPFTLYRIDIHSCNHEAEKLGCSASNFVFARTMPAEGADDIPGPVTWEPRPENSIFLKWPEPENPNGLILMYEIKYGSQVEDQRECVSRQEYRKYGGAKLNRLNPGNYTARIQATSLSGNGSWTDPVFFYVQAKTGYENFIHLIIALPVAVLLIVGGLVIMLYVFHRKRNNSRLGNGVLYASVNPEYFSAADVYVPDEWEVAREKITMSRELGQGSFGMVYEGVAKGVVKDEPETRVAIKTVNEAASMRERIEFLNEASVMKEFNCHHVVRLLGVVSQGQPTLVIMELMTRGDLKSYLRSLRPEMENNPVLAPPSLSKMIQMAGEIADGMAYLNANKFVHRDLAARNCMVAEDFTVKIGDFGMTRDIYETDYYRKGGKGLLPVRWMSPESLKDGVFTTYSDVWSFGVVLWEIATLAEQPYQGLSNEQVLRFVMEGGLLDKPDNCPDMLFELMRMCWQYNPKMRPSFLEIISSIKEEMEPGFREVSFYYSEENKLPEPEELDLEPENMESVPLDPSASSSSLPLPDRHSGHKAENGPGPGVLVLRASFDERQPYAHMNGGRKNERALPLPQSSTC
Method: as §1, §2, §3, §4, §5, §6, §7, §8, §9, §10, §11, §12, §13

Ba/F3 EGFR WT = Ba/F3 EGFR WT (Homo sapiens, UniProt P00533); test: Cell proliferation experiment (CellTiter Glo, 72 hours); type: cell-based; settings: read-out: BaF3 EGFR WT IC50
Method: (§14) Experiment 2 Cell Proliferation Experiment
(§15) Suspension cells: Ba/F3 cells with stable overexpression of Δ19del/T790M/C797S mutant gene, named Ba/F3-Δ19del/T790M/C797S; Ba/F3 cells with overexpression of EGFR WT, named Ba/F3 EGFR WT.
(§16) RPMI 1640 with 10% FBS and 1% Penicillin-Streptomycin, or DMEM with 10% FBS and 1% Penicillin-Streptomycin.
(§17) a) Diluting compounds being tested (20 mM stock solutions), as an initial concentration, to 10 mM with 100% DMSO, followed by diluting compounds serially in a 3-fold gradient such that each compound is diluted into 12 concentrations (Cat #P-05525, Labcyte).
(§18) b) Diluting the above compound solutions for 100-fold with culture medium to prepare 10-fold working solution.
(§19) b) Seeding cells into 96-well cell culture plate at a density of 2000 or 3000 cells/well, with 135 μL/well.
(§20) a) Adding the compound prepared in step 2 to the cell plate at 15 μL per well, resulting in a final maximum concentration of 10000 nM or 1111 nM. The compounds is diluted serially in a 3-fold gradient such that each compound is diluted into 9 concentrations, wherein the final concentration of DMSO is 0.1%. Blank control wells are added with medium (0.1% DMSO).
(§21) b) Re-incubating the cells in an incubator for 72 hours. 5. Detection
(§22) a) Adding 50 μL of CTG reagent (CellTiter Glo kit, promega, Cat #G7573) to the 96-well cell culture plate.
(§23) b) Shaking the plate for 2 minutes and reacting at room temperature for 10 minutes.
(§24) c) Reading the luminescence signal value (Lum) using PerkinElmer reader.
(§25) The cell survival inhibition rate of each well was calculated. The data was analyzed by GraphPad Prism 6.0 software. The dose-response curve was obtained by fitting the data with a nonlinear regression equation. The IC50 of each compound was calculated as follows:
(§26) Cell survival inhibition rate (%)=(1−(Lumcompound tested−Lummedium control)/(Lumcell control−Lummedium control))×100%
(§27) Y=Min+(Max−Min)/(1+10^((Log IC50−X)*Slope));
(§28) X: logarithm of compound concentration. Y: cell survival inhibition rate.

Ba/F3-Δ19del/T790M/C797S = Ba/F3-Δ19del/T790M/C797S (Homo sapiens, UniProt P00533, T790M/C797S, cells depend on it, form not given); test: as above; type: cell-based; settings: read-out: Ba/F3/EGFR Δ19del/T790M/C797S IC50
Ba/F3-Δ19del/T790M/C797S, sequence (P00533 with tags, fused parts or gaps DEL746-750/T790M/C797S, form open): as the sequence (P00533 with tags, fused parts or gaps DEL746-750/T790M/C797S, form open) above
Method: as §14, §15, §16, §17, §18, §19, §20, §21, §22, §23, §24, §25, §26, §27, §28

[1] = tested on: human epidermal cancer cells A431 carrying EGFR WT; test: as above; type: cell-based; settings: Homo sapiens, A-431
Method: as §14
Adherent cells: human epidermal cancer cells A431 carrying EGFR WT.
as §16, §17, §18, §19, §20, §21, §22, §23, §24, §25, §26, §27, §28

EGFR WT, sequence (P00533 25-1210): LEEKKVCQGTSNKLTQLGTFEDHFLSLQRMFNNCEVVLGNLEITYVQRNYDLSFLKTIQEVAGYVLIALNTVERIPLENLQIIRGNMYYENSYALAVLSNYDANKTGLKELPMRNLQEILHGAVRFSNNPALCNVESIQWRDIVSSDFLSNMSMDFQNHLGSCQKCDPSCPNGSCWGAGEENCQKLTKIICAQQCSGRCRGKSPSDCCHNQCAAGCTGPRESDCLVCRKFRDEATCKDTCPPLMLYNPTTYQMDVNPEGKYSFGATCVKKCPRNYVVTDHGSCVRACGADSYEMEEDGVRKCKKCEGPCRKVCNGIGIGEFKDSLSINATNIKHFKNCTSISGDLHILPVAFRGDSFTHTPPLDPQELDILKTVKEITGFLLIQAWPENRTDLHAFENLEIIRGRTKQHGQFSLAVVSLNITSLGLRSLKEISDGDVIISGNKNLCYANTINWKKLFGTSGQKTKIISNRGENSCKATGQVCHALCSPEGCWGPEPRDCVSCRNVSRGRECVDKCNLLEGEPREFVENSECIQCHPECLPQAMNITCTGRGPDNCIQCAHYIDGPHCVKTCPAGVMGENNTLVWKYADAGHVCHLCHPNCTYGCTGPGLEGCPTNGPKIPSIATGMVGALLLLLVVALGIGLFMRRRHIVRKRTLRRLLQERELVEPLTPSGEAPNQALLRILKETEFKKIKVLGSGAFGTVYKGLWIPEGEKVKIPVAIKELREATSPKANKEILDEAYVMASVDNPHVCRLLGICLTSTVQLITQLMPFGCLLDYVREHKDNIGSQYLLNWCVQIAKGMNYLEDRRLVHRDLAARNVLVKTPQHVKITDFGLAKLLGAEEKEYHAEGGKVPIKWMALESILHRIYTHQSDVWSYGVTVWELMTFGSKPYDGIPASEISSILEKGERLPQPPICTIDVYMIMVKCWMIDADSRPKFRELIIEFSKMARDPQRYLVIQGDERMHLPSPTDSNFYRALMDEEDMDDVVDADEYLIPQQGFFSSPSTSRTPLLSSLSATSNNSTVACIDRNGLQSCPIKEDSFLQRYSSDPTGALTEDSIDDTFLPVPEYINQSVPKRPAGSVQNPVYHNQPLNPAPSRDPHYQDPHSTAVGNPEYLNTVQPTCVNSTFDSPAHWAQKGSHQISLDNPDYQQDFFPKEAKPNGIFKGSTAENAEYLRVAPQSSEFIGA

Compound | pIC50 (EGFR WT) | pIC50 (EGFR Δ19del/T790M/C797S) | pIC50 (IGF1R) | GI50 (Ba/F3 EGFR WT) | GI50 (Ba/F3-Δ19del/T790M/C797S) | pIC50 [1]
COc1cc(Nc2ncc(Br)c(Nc3ccc4nc(C5CC5)ccc4c3P(C)(C)=O)n2)c(C)cc1N1CCOCC1 [Compound J-001, (6-((5-Bromo-2-((5-methoxy-2-methyl-4-morpholinylphenyl)amino)pyrimidin-4-yl)amino)-2-cyclopropylquinoline-5-yl)dimethylphosphine oxide] | 7.29 | 9.30 | 7.20 | 396 nM | 26.5 nM | 5.87
CCc1cc(N2CCOCC2)c(OC)cc1Nc1ncc(Br)c(Nc2ccc3nc(C4CC4)ccc3c2P(C)(C)=O)n1 [Compound J-003, (6-((5-Bromo-2-((2-ethyl-5-methoxy-4-morpholinylphenyl)amino)pyrimidin-4-yl)amino)-2-cyclopropylquinoline-5-yl)dimethylphosphine oxide] | 6.76 | 9.30 | 6.72 | 646 nM | 25.7 nM | 5.52
COc1cc(Nc2ncc(Br)c(Nc3ccc4nc(C5CC5)ccc4c3P(C)(C)=O)n2)c(C(C)C)cc1N1CCOCC1 [Compound J-005, (6-((5-Bromo-2-((2-isopropyl-5-methoxy-4-morpholinylphenyl)amino)pyrimidin-4-yl)amino)-2-cyclopropylquinoline-5-yl)dimethylphosphine oxide] | 6.88 | 9.30 | 7.13 | 698 nM | 27 nM | 5.21
COc1cc(N2CCN(C)CC2)c(C)cc1Nc1ncc(Br)c(Nc2ccc3nc(C4CC4)ccc3c2P(C)(C)=O)n1 [Compound J-010, (6-((5-Bromo-2-((2-methoxy-5-methyl-4-(4-methylpiperazin-1-yl)phenyl)amino)pyrimidin-4-yl)amino)-2-cyclopropylquinolin-5-yl)dimethylphosphine oxide] | 7.10 | 9.70 | 6.85 | 187 nM | 11.5 nM | 6.01
CCc1cc(Nc2ncc(Br)c(Nc3ccc4nc(C5CC5)ccc4c3P(C)(C)=O)n2)c(OC)cc1N1CCN(C)CC1 [Compound J-011, (6-((5-Bromo-2-((5-ethyl-2-methoxy-4-(4-methylpiperazin-1-yl)phenyl)amino)pyrimidin-4-yl)amino)-2-cyclopropylquinolin-5-yl)dimethylphosphine oxide] | 7.34 | 9.15 | 6.84 | 190 nM | 4.7 nM | 5.94
COc1cc(N2CCN(C)CC2)c(C#N)cc1Nc1ncc(Br)c(Nc2ccc3nc(C4CC4)ccc3c2P(C)(C)=O)n1 [Compound J-012, 5-((5-Bromo-4-((2-cyclopropyl-5-(dimethylphosphineoxide)quinolin-6-yl)amino)pyrimidin-2-yl)amino)-4-methoxy-2-(4-methylpiperazin-1-yl)benzonitrile] | 7.36 | 9.70 | 6.55 | 130 nM | 3.4 nM | 6.08

These reach a higher pIC50 (EGFR WT). Values come first.

pIC50 (EGFR WT) | pIC50 (EGFR Δ19del/T790M/C797S) | pIC50 (IGF1R) | GI50 (Ba/F3 EGFR WT) | GI50 (Ba/F3-Δ19del/T790M/C797S) | pIC50 [1] | Compound
7.52 | 9.70 | 7.39 | 147 nM | 6 nM | 5.99 | COc1cc(Nc2ncc(Br)c(Nc3ccc4nc(-c5cnn(C)c5)ccc4c3P(C)(C)=O)n2)c(C)cc1N1CCOCC1 [Compound J-007, (6-((5-Bromo-2-((5-methoxy-2-methyl-4-morpholinylphenyl)amino)pyrimidin-4-yl)amino)-2-(1-methyl-1H-pyrazol-4-yl)quinolin-5-yl)dimethylphosphine oxide]
7.84 | 9.52 | 7.83 | 168 nM | 16.3 nM | 6.42 | COc1cc(Nc2ncc(Br)c(Nc3ccc4nc(C5CC5)ccc4c3P(C)(C)=O)n2)c(C)cc1N1CCC(N(C)C)CC1 [Compound J-009, (6-((5-Bromo-2-((4-(4-(dimethylamino)piperidin-1-yl)-5-methoxy-2-methylphenyl)amino)pyrimidine-4-yl)amino)-2-cyclopropylquinolin-5-yl)dimethylphosphine oxide]
7.94 | 9.40 | 7.55 | 87 nM | 15.3 nM | 6.51 | C#Cc1ccc2c(P(C)(C)=O)c(Nc3nc(Nc4cc(C)c(N5CCC(N6CCN(C)CC6)CC5)cc4OC)ncc3Br)ccc2n1 [Compound J-013, (6-((5-Bromo-2-((2-methoxy-5-methyl-4-(4-(4-methylpiperazin-1 yl)piperidin-1-yl)phenyl)amino)pyrimidin-4-yl)amino)-2-ethynylquinolin-5-yl)dimethylphosphine oxide]
8.33 | 9.72 | 7.24 | 108 nM | 6 nM | 6.29 | C#Cc1ccc2c(P(C)(C)=O)c(Nc3nc(Nc4cc(CC)c(N5CCC(N6CCN(C)CC6)CC5)cc4OC)ncc3Br)ccc2n1 [Compound J-014, (6-((5-Bromo-2-((5-ethyl-2-methoxy-4-(4-(4-methylpiperazin-1-yl)piperidin-1-yl)phenyl)amino)pyrimidin-4-yl)amino)-2-ethynylquinolin-5-yl)dimethylphosphine oxide]
7.92 | 9.54 | 7.92 | 388 nM | 15.8 nM | 6.17 | C#Cc1ccc2c(P(C)(C)=O)c(Nc3nc(Nc4cc(OC)c(N5CCC(N6CCN(C)CC6)CC5)cc4C)ncc3Br)ccc2n1 [Compound J-015, (6-((5-Bromo-2-((5-methoxy-2-methyl-4-(4-(4-methylpiperazin-1-yl)piperidin-1-yl)phenyl)amino)pyrimidin-4-yl)amino)-2-ethynylquinolin-5-yl)dimethylphosphine oxide]
8.34 | 9.52 | 7.77 | 132 nM | 5.1 nM | 6.42 | CCc1cc(Nc2ncc(Br)c(Nc3ccc4nc(C#N)ccc4c3P(C)(C)=O)n2)c(OC)cc1N1CCC(N2CCN(C)CC2)CC1 [Compound J-016, 6-((5-Bromo-2-((5-ethyl-2-methoxy-4-(4-(4-methylpiperazin-1-yl)piperidin-1-yl)phenyl)amino)pyrimidin-4-yl)amino)-5-(dimethylphosphineoxide)quinoline-2-formonitrile]
